“And” between values parts separate entries of the source, which are not always exact repeats. Equal values may be shown once. Read-outs that look alike come from different tables or passages of the source.
Tests used:
[1] = type: physicochemical
Botrytis cinerea = assay: In vivo preventive test on Botrytis cinerea (grey mould); conditions: 500 ppm; gherkin plants sprayed 24 hours before contamination; grading 4-5 days after contamination vs control plants
Description: Gherkin plants (“Vert petit de Paris” variety), sown in starter cups on a 50/50 peat soil-pozzolana substrate and grown at 24° C., are treated at the Z11 cotyledon stage by spraying with the active ingredient prepared as described above. Plants, used as controls, are treated with the mixture of acetone/tween/DMSO/water not containing the active material. After 24 hours, the plants are contaminated by spraying the cotyledons with an aqueous suspension of cryopreserved Botrytis cinerea spores (50 000 spores per ml). The spores are suspended in a nutrient solution composed of 10 g/L of PDB, 50 g/L of D-Fructose, 2 g/L of NH4NO3 and 1 g/L of KH2PO4. The contaminated gherkin plants are incubated at 17° C. and at 80% relative humidity. Grading (% of efficacy) is carried out 4-5 days after the contamination, in comparison with the control plants.

Septoria tritici = assay: In vivo preventive test on Septoria tritici (leaf spot on wheat); conditions: 500 ppm; wheat plants sprayed 24 hours before contamination; grading 21 to 28 days after contamination vs control plants
Outline: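 Scipion wheat at 1-leaf stage sprayed with compound, controls receiving acetone/tween/DMSO/water vehicle; 24 h later leaves inoculated with Septoria tritici spores (500 000 spores per ml). Efficacy (%) graded versus control plants 21 to 28 days after contamination.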

Sphaerotheca fuliginea = assay: In vivo preventive test on Sphaerotheca fuliginea (powdery mildew on cucurbits); conditions: 500 ppm; gherkin plants sprayed 24 hours before contamination; grading 12 days after contamination vs control plants
Description: Gherkin plants (“Vert petit de Paris” variety), sown in starter cups on a 50/50 peat soil-pozzolana substrate and grown at 24° C., are treated at the Z11 cotyledon stage by spraying with the active ingredient prepared as described above. Plants, used as controls, are treated with the mixture of acetone/tween/DMSO/water not containing the active material. After 24 hours, the plants are contaminated by spraying the cotyledons with an aqueous suspension of Sphaerotheca fuliginea spores (100 000 spores per ml). The spores are collected from infected plants. […] Grading (% of efficacy) is carried out 12 days after the contamination, in comparison with the control plants.

[2] = method [a]: HPLC/LC-MS on reversed phase at pH 2.7, 0.1% formic acid in water / acetonitrile, linear gradient 10% to 95% acetonitrile
[3] = HPLC on reversed phase columns, method [a]: pH 2.7, 0.1% formic acid in water / acetonitrile, linear gradient 10% to 95% acetonitrile
[4] = method [a]: HPLC/LC-MS on reversed phase at pH 2.7, 0.1% formic acid in water / acetonitrile, gradient 10% to 95% acetonitrile
[5] = HPLC on reversed phase columns, method [a]: pH 2.7, 0.1% formic acid in water and acetonitrile, linear gradient 10% to 95% acetonitrile

Row | SMILES | chromatographic logP ([1]; pH 2.7) | log P [1, 2] | log P [1, 3] | log P [1, 4] | log P [1, 5] | Log P ([1]; method [a]: HPLC/LC-MS on reversed phase at pH 2.7, 0.1% formic acid in water and acetonitrile, linear gradient 10% to 95% acetonitrile) | % of efficacy (protection) (Botrytis cinerea) [%] | % of efficacy (protection) (Septoria tritici) [%] | % of efficacy (protection) (Sphaerotheca fuliginea)
1 | CC(C)NC(=O)C1(C)CC(c2ccc3ncc(I)cc3c2)=NO1 (centres unmarked) [Compound No. 38, 3-(3-iodoquinolin-6-yl)-N-isopropyl-5-methyl-4,5-dihydro-1,2-oxazole-5-carboxamide] | 2.88 | – | – | – | – | – | 100 | 100 | 97%
2 | CCC1(C(=O)NC(C)C)CC(c2ccc3ncc(Br)cc3c2)=NO1 (centres unmarked) [compound 66] | – | 3.13^[a] | – | – | – | – | 100 | 100 | 98%
3 | CNC(=O)C1(C)CC(c2ccc3ncc(Br)cc3c2)=NO1 (centres unmarked) [compound 532] | – | – | 2.07[a] | – | – | – | 100 | 100 | 89%
4 | C#Cc1cnc2c(C)cc(C3=NOC(C)(C(=O)NCc4cnc(C)cn4)C3)cc2c1 (centres unmarked) [compound 535] | – | – | 2.50[a] | – | – | – | 100 | 100 | 100%
5 | C#Cc1cnc2ccc(C3=NOC(C(=O)NCC4COC(C)(C)O4)(C(F)F)C3)cc2c1 (centres unmarked) [compound 614] | – | – | 2.64[a] | – | – | – | 100 | 97 | 92%
6 | COC1(C(=O)NC(C)C)CC(c2cc(Cl)c3ncc(Br)cc3c2)=NO1 (centres unmarked) [compound 569] | – | – | 3.15[a] | – | – | – | 100 | 100 | 100%
7 | C#Cc1cnc2c(Cl)cc(C3=NOC(C)(C(=O)NCC4COC(C)(C)O4)C3)cc2c1 (centres unmarked) [compound 559] | – | – | 2.84[a] | – | – | – | 95 | 100 | 85%
8 | CCOCCCNC(=O)C1(OC)CC(c2ccc3ncc(I)cc3c2)=NO1 (racemic) [compound 448] | – | – | – | 2.80[a] | – | – | 98 | 98 | 100%
9 | Cc1cc(C2=NOC(C)(C(=O)NCC3COC(C)(C)O3)C2)cc2cc(Br)cnc12 (centres unmarked) [compound 538] | – | – | 3.39[a] | – | – | – | 100 | 100 | 100%
10 | COC1(C(=O)NCC2COC(C)(C)O2)CC(c2ccc3ncc(Br)cc3c2)=NO1 (centres unmarked) [compound 496] | – | – | – | 2.62[a] | – | – | 99 | 100 | 100%
11 | CCOCCCNC(=O)C1(CC)CC(c2ccc3ncc(Br)cc3c2)=NO1 (centres unmarked) [compound 68] | – | 3.11^[a] | – | – | – | – | 98 | 97 | 98%
12 | C#Cc1cnc2ccc(C3=NOC(C)(C(=O)NCC4CCCO4)C3)cc2c1 (centres unmarked) [compound 132] | – | 2.17^[a] | – | – | – | – | 98 | 100 | 94%
13 | COC1(C(=O)NCC2COC(C)(C)O2)CC(c2ccc3ncc(I)cc3c2)=NO1 (centres unmarked) [compound 483] | – | – | – | 2.73[a] | – | – | 100 | 100 | 100%
14 | CCOC(=O)CC(C)NC(=O)C1(C)CC(c2ccc3ncc(Br)cc3c2)=NO1 (mixture of isomers) [compound 505] | – | – | – | – | – | – | 75 | – | 98%
15 | C#Cc1cnc2ccc(C3=NOC(OC)(C(=O)NCCCOCC)C3)cc2c1 (centres unmarked) [compound 408] | – | – | – | 2.39[a] | – | – | – | 100 | 100%
16 | C#Cc1cnc2ccc(C3=NOC(C)(C(=O)NCCCOCC(F)(F)F)C3)cc2c1 (centres unmarked) [compound 326] | – | – | 2.77[a] | – | – | – | – | 98 | 88%
17 | COCC(C)NC(=O)C1(C)CC(c2ccc3ncc(Br)cc3c2)=NO1 (racemic) [compound 368] | – | – | – | 2.54[a] | – | – | – | 100 | 100%
18 | C=CC1(C(=O)NC(C)C)CC(c2ccc3ncc(I)cc3c2)=NO1 (centres unmarked) [compound 731] | – | – | – | – | 3.21[a] | – | – | 100 | 75%
19 | CC(NC(=O)C1(C)CC(c2ccc3ncc(Br)cc3c2)=NO1)C(F)(F)F (centres unmarked) [compound 345] | – | – | 3.13[a] | – | – | – | – | 100 | 94%
20 | C#Cc1cnc2ccc(C3=NOC(C)(C(=O)NC(C)C4CCOC4)C3)cc2c1 (centres unmarked) [compound 341] | – | – | 2.18[a] | – | – | – | – | 100 | 98%
21 | COC1(C(=O)NC(C)C)CC(c2ccc3ncc(Br)cc3c2)=NO1 (single isomer, unassigned) [compound 284] | – | – | 2.58[a] | – | – | – | – | 100 | 100%
22 | CCOCCCNC(=O)C1(C)CC(c2cc(C)c3ncc(Br)cc3c2)=NO1 (racemic) [compound 547] | – | – | 3.48[a] | – | – | – | 100 | – | 100%

Now from value to compound, other results behind:

Row | chromatographic logP ([1]; pH 2.7) | log P [1, 2] | log P [1, 3] | log P [1, 4] | log P [1, 5] | Log P ([1]; method [a]: HPLC/LC-MS on reversed phase at pH 2.7, 0.1% formic acid in water and acetonitrile, linear gradient 10% to 95% acetonitrile) | SMILES | % of efficacy (protection) (Botrytis cinerea) [%] | % of efficacy (protection) (Septoria tritici) [%] | % of efficacy (protection) (Sphaerotheca fuliginea)
23 | – | – | – | 2.35[a] | – | – | COC1(C(=O)NC2CC2)CC(c2ccc3ncc(Br)cc3c2)=NO1 (centres unmarked) [compound 508] | 100 | 94 | 98%
24 | – | – | 3.15[a] | – | – | – | C#Cc1cnc2c(Cl)cc(C3=NOC(C)(C(=O)NC4CCC4)C3)cc2c1 (centres unmarked) [compound 544] | 100 | 100 | 98%
25 | – | – | 2.58[a] | – | – | – | C#Cc1cnc2ccc(C3=NOC(C)(C(=O)NC(CC)COC)C3)cc2c1 (centres unmarked) [compound 524] | 100 | 93 | 93%
26 | – | – | – | – | 3.08[a] | – | C=CC1(C(=O)NC(C)C)CC(c2ccc3ncc(Br)cc3c2)=NO1 (centres unmarked) [compound 734] | 95 | 100 | 98%
27 | – | – | 3.11[a] | – | – | – | COC1(C(=O)NCC2COC(C)(C)O2)CC(c2cc(Cl)c3ncc(Br)cc3c2)=NO1 (centres unmarked) [compound 568] | 99 | 100 | 94%
28 | – | – | 3.04[a] | – | – | – | C#Cc1cnc2c(C)cc(C3=NOC(C)(C(=O)NCCCOCC)C3)cc2c1 (racemic) [compound 546] | 100 | 83 | 100%
29 | – | – | 3.27[a] | – | – | – | CCCn1cc(CNC(=O)C2(OC)CC(c3cc(C)c4ncc(Br)cc4c3)=NO2)c(C)n1 (centres unmarked) [compound 595] | 100 | 100 | 100%
30 | – | 2.31^[a] | – | – | – | – | CCn1cc(CNC(=O)C2(CF)CC(c3ccc4ncc(Br)cc4c3)=NO2)c(C)n1 (centres unmarked) [compound 75] | 93 | – | 94% and 98%
31 | – | – | – | – | 3.11[a] | – | C=CC1(C(=O)NCC2COC(C)(C)O2)CC(c2ccc3ncc(I)cc3c2)=NO1 (centres unmarked) [compound 729] | 97 | 100 | 100%
32 | – | – | 2.28[a] | – | – | – | C#Cc1cnc2ccc(C3=NOC(C)(C(=O)NC(C)c4nccs4)C3)cc2c1 (centres unmarked) [compound 334] | – | 100 | 94%
33 | – | 2.07^[a] | – | – | – | – | Cn1cc(CNC(=O)C2(C)CC(c3ccc4ncc(Br)cc4c3)=NO2)cn1 (centres unmarked) [compound 176] | – | 93 | 83%
34 | – | – | – | – | – | 3.23^[a] | CCn1cc(CNC(=O)C2(C(F)(F)F)CC(c3cc4cc(Br)cnc4c(F)c3F)=NO2)c(C)n1 (centres unmarked) [compound 6] | – | 71 | 89%
35 | – | – | – | 2.88[a] | – | – | CCC(COC)NC(=O)C1(C)CC(c2ccc3ncc(Br)cc3c2)=NO1 (racemic) [compound 377] | – | 100 | 98%
36 | – | – | 2.13[a] | – | – | – | C#Cc1cnc2ccc(C3=NOC(C)(C(=O)NC4CC4)C3)cc2c1 (centres unmarked) [compound 314] | – | 100 | 81%
